This passage reports IC50 and inhibition results from ChEMBL document CHEMBL1667784, “Synthesis and structure-activity relationship of 2-thiopyrimidine-4-one analogs as antimicrobial and anticancer agents” (Eur J Med Chem, 2011).

Converted amounts (≈) assume the structure as drawn.

One test concerns MDA-MB-231. Put plainly: Cytotoxicity against human MDA-MB-231 cells after 3 days by MTT assay. The format is functional, cell-based. As to conditions: MDA-MB-231, 72 h. On the technique in general: Tetrazolium assays rely on reduction of a dye to a coloured formazan, in cell work by metabolically active cells.
Test [1] can be described thus: Cytotoxicity against human HCC-S102 cells after 3 days by MTT assay. The format is functional, cell-based. To be noted: HCC-S102, 72 h.
Another test deals with HeLa. As to the kind of experiment: Cytotoxicity against human HeLa cells after 3 days by MTT assay. The format is functional, cell-based. As to conditions: 72 h.
The next test deals with KB. As to the kind of experiment: Cytotoxicity against human KB cells after 3 days by MTT assay. The format is functional, cell-based. As to conditions: 72 h.
In test [2] the test system is Moraxella catarrhalis. As to the kind of experiment: Antimicrobial activity against Branhamella catarrhalis assessed as growth inhibition at 128 ug/ml by agar dilution method. The format is functional. A general note: In agar dilution, organisms are placed on agar that contains the substance at set levels.
The next test relates to H69AR. As to the kind of experiment: Cytotoxicity against human H69AR cells after 3 days by MTT assay. The format is functional, cell-based. To be noted: 72 h.
Another test has as its system T47D. As to the kind of experiment: Cytotoxicity against human T47D cells after 3 days by MTT assay. As to conditions: 72 h. The format is functional, cell-based.
The next test concerns HL-60. Put plainly: Cytotoxicity against human HL60 cells after 3 days by MTT assay. The format is functional, cell-based. As to conditions: HL-60, 72 h.
The subject of the next test is HepG2. Put plainly: Cytotoxicity against human HepG2 cells after 3 days by MTT assay. The format is functional, cell-based. To be noted: HepG2, 72 h.
Another test concerns A549. Put plainly: Cytotoxicity against human A549 cells after 3 days by MTT assay. The format is functional, cell-based. To be noted: A549, 72 h.
Test [3] is described as follows: Cytotoxicity against human HuCCa1 cells after 3 days by MTT assay. The format is functional, cell-based. To be noted: HuCC-A1, 72 h.
The test system of a further test is Plasmodium falciparum. Put plainly: Antimalarial activity against chloquine-resistant Plasmodium falciparum T9.94 infected in human erythrocyte assessed as decrease in parasite growth after 48 hrs by microscopy. The format is functional, organism-based. To be noted: T9.94, 48 h.
Test [4] concerns Neisseria mucosa. As to the kind of experiment: Antimicrobial activity against Neisseria mucosa assessed as growth inhibition at 128 ug/ml by agar dilution method. The format is functional.
The next test deals with P388. Put plainly: Cytotoxicity against mouse P388 cells after 3 days by MTT assay. The format is functional, cell-based. As to conditions: P388, 72 h.
The test system of test [5] is Streptococcus pyogenes. Put plainly: Antimicrobial activity against Streptococcus pyogenes assessed as growth inhibition at 128 ug/ml by agar dilution method. The format is functional.
The test system of test [6] is Moraxella catarrhalis. Put plainly: Antimicrobial activity against Branhamella catarrhalis assessed as growth inhibition at 64 ug/ml by agar dilution method. The format is functional.
The subject of a further test is Candida albicans. As to the kind of experiment: Antifungal activity against Candida albicans assessed as growth inhibition at 128 ug/ml by agar dilution method. The format is functional.
Another test has as its system Bacillus subtilis. Put plainly: Antimicrobial activity against Bacillus subtilis ATCC 6633 assessed as growth inhibition at 10 ug/ml by agar dilution method. The format is functional.
The next test has as its system Edwardsiella tarda. Put plainly: Antimicrobial activity against Edwardsiella tarda assessed as growth inhibition at 10 ug/ml by agar dilution method. The format is functional.
Test [7] deals with Neisseria mucosa. Put plainly: Antimicrobial activity against Neisseria mucosa assessed as growth inhibition at 10 ug/ml by agar dilution method. The format is functional.
The subject of test [8] is Moraxella catarrhalis. As to the kind of experiment: Antimicrobial activity against Branhamella catarrhalis assessed as growth inhibition at 10 ug/ml by agar dilution method. The format is functional.
Test [9] deals with Staphylococcus epidermidis. As to the kind of experiment: Antimicrobial activity against Staphylococcus epidermidis ATCC 12228 assessed as growth inhibition at 10 ug/ml by agar dilution method. The format is functional.
The next test has as its system Staphylococcus aureus. As to the kind of experiment: Antimicrobial activity against Staphylococcus aureus ATCC 25923 assessed as growth inhibition at 10 ug/ml by agar dilution method. The format is functional.
The test system of test [10] is Streptococcus pyogenes. Put plainly: Antimicrobial activity against Streptococcus pyogenes assessed as growth inhibition at 10 ug/ml by agar dilution method. The format is functional.

Consider `CCCCSc1nccc(=O)[nH]1`, for which the IC50 is more than 50 µg/mL with MDA-MB-231; more than 50 µg/mL in test [1]; more than 50 µg/mL in the test with HeLa; 27 µg/mL (≈ 147 µM) in the test on KB; more than 50 µg/mL with H69AR; 5 µg/mL (≈ 27.1 µM) in the test on T47D. Also, the half-inhibitory concentration (IC50) with HL-60 was more than 50 µg/mL; in the test with HepG2, more than 50 µg/mL; with A549, more than 50 µg/mL; in test [3], more than 50 µg/mL; in the test with Plasmodium falciparum, 10 µM; in the test with P388, more than 50 µg/mL. For the same molecule, the inhibition at 128 µg/mL came to 100% with Moraxella catarrhalis [2], 25% in the test on Neisseria mucosa [4] and 25% in the test on Streptococcus pyogenes [5].
Take `CCC(C)Sc1nccc(=O)[nH]1` (configuration not stated): the IC50 was more than 50 µg/mL in the test on HepG2, more than 50 µg/mL with A549, more than 50 µg/mL in test [3] and 10 µM with Plasmodium falciparum.
For `O=c1ccnc(SCC2CCCCC2)[nH]1`, the IC50 with MDA-MB-231 is more than 50 µg/mL; in test [1], more than 50 µg/mL; in the test with HeLa, more than 50 µg/mL; in the test on KB it was more than 50 µg/mL; in the test on H69AR, 50 µg/mL (≈ 223 µM); in the test with T47D it was more than 50 µg/mL. The IC50 in the test with HL-60 was more than 50 µg/mL; in the test on HepG2 it was more than 50 µg/mL; with A549 it was more than 50 µg/mL; in [3] it was more than 50 µg/mL; with Plasmodium falciparum, 10 µM; with P388, 40.4 µg/mL (≈ 180 µM). For the same molecule, in the test with Moraxella catarrhalis [6], the inhibition at 64 µg/mL amounted to 100%. The inhibition at 128 µg/mL in the test on Candida albicans was found to be 75%; with Neisseria mucosa [4], 25%; in the test with Streptococcus pyogenes [5] it was 100%.
As for `O=c1ccnc(SCc2ccccc2)[nH]1`, the IC50 (in the test with MDA-MB-231; in [1]; in the test on HeLa; in the test on KB; with H69AR; with T47D) was more than 50 µg/mL throughout. The IC50 in the test on HL-60 was more than 50 µg/mL; in the test on HepG2, more than 50 µg/mL; with A549 it was more than 50 µg/mL; in test [3], more than 50 µg/mL; in the test on Plasmodium falciparum, 10 µM; with P388, more than 50 µg/mL. Further, the inhibition at 128 µg/mL worked out at 50% with Moraxella catarrhalis [2] and 25% in the test with Streptococcus pyogenes [5].
Take `O=c1ccnc(SC23CC4CC(CC(C4)C2)C3)[nH]1`: the IC50 was more than 50 µg/mL in the test on MDA-MB-231; more than 50 µg/mL in [1]; more than 50 µg/mL with HeLa; more than 50 µg/mL in the test with KB; 35 µg/mL (≈ 133 µM) in the test with H69AR; 32 µg/mL (≈ 122 µM) in the test on T47D. The IC50 is more than 50 µg/mL with HL-60; 32.5 µg/mL (≈ 124 µM) in the test with HepG2; more than 50 µg/mL in the test with A549; more than 50 µg/mL in test [3]; 10 µM with Plasmodium falciparum; 36.9 µg/mL (≈ 141 µM) in the test on P388. Further, the inhibition at 128 µg/mL in the test on Moraxella catarrhalis [2] was 75%; in the test with Neisseria mucosa [4] it was 25%; in the test on Streptococcus pyogenes [5] it was 25%.
Turning to `CC1(C)S[C@@H]2[C@H](NC(=O)[C@H](N)c3ccccc3)C(=O)N2[C@H]1C(=O)O` [AMPICILLIN], the inhibition at 10 µg/mL (with Bacillus subtilis; with Edwardsiella tarda; with Neisseria mucosa [7]; in the test with Moraxella catarrhalis [8]; in test [9]; with Staphylococcus aureus) was 100% throughout. The inhibition at 10 µg/mL in the test on Streptococcus pyogenes [10] came to 100%.
Take `COc1cc([C@@H]2c3cc4c(cc3[C@@H](O[C@@H]3O[C@@H]5CO[C@@H](C)O[C@H]5[C@H](O)[C@H]3O)[C@H]3COC(=O)[C@H]23)OCO4)cc(OC)c1O` [ETOPOSIDE]: the 50% inhibitory concentration (IC50) in the test on MDA-MB-231 turned out to be 0.24 µg/mL (≈ 0.408 µM); in [1], 6 µg/mL (≈ 10.2 µM); in the test on HeLa it was 0.38 µg/mL (≈ 0.646 µM); in the test with KB, 0.25 µg/mL (≈ 0.425 µM); with H69AR it was 30 µg/mL (≈ 51 µM); with T47D, 0.05 µg/mL (≈ 0.085 µM). Moreover, the IC50 with HL-60 amounted to 0.85 µg/mL (≈ 1.44 µM); in the test on HepG2, 21 µg/mL (≈ 35.7 µM); with A549, 0.6 µg/mL (≈ 1.02 µM); in test [3], 4 µg/mL (≈ 6.8 µM); with P388, 0.12 µg/mL (≈ 0.204 µM).

By IC50 is commonly meant the point on the concentration scale where inhibition reaches its midpoint. As usually defined, the inhibition is how much of the control response was suppressed.
